Key:
Format in all cases: cell-based
[1] = test system: T47D (PI3Kα H1047R mutant) cells; experiment: Inhibition of pAKT formation, alphaLISA SureFire Ultra AKT 1/2/3 (pS473), T47D cells; conditions: Homo sapiens, T47D, T47D (PI3Kα H1047R mutant) cells; inhibition of pAKT (pS473) formation; approximately one hour or 24 hours treatment; read-out: T47D pAKT (H1047R mutant) IC50
Description: The ability of a compound of Formula (I) to inhibit the formation of pAKT was measured using alphaLISA Surefire Ultra AKT 1/2/3 (pS473) Assay Kit (#ALSU-PAKT-B50K) was obtained from Perkin Elmer (Waltham, MA).
To prepare assay plates for pAKT alphaLISA assays, cells were trypsinized, resuspended in fresh media, and viable cells were counted utilizing trypan blue exclusion. Prior to seeding, cells were washed with PBS and resuspended in HBSS (Gibco, #14025092). T47D (12,000/w), SKBR3(12,000/w), or MKN1(24,000/w) cells were seeded at 12 μl per well in a solid white flat bottom 384 cell culture plate (Perkin Elmer #6007680).
Immediately after seeding, cells were dosed using an Echo Liquid Handler (Beckman Coulter) with compounds at a […] starting concentration and serially diluted (1:4) for a total of 10 concentrations. […] Cells were incubated with the compounds (solubilized in DMSO) for approximately one hour or 24 hours at 37° C. After one hour (or 24 hours) of treatment, cells were lysed with 3 μl of the 5× lysis buffer (provided and incubated at room temperature for 15 min on a microtiter plate shaker). Once cells were sufficiently lysed, 7.5 μl of the acceptor bead mix (made using the manufacturers recommended dilutions) was added to each well and left on the microtiter plate shaker for 1 min prior to incubating plates at room temperature for one hour, in the absence of light. After one hour of incubation with the acceptor bead mix, 7.5 μl of the donor bead mix (made using the manufacturers recommended dilutions) was added to each well and left on the microtiter plate shaker for 1 min prior to incubating plates at room temperature overnight in the absence of light. Plates were then imaged the following day using a CLARIOstar microplate reader (BMG Labtech, Germany).
Percent of control values were calculated by subtracting the average signal from the positive control (alpelisib) treated wells from all treated wells (including DMSO control wells) and then divided by the average signal from the vehicle DMSO treated control wells. Percent of vehicle control values were plotted as log (inhibitor) vs. response-Variable slope (four parameters) for curve fitting and IC50 values were determined using XLfit.
Key: N.D. =not determined
Inhibition of pAKT in T47D (PI3Kα H1047R mutant) cells by Exemplary Compounds of Formula (I)

[2] = test system: T47D (PI3Kα H1047R mutant) cells; experiment: CellTiter-Glo 2.0 luminescent cell viability assay, 72 hours, T47D cells; conditions: Homo sapiens, T47D, 72 h, T47D (PI3Kα H1047R mutant) cells, CellTiter-Glo, approximately 72 hours; read-out: T47D (H1047R mutant) Viability IC50
How it was run: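 Viability was measured by CellTiter-Glo 2.0 luminescence after approximately 72 h of compound exposure at 37° C. Plating was 1000 cells per well the day before dosing, with ten 1:4 dilutions from a 10 µM top concentration. Values as percent of vehicle were fitted by variable-slope log(inhibitor) regression to give IC50.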

[3] = test system: SKBR3 (PI3Kα wild type) cells; experiment: CellTiter-Glo 2.0 luminescent cell viability assay, 72 hours, SKBR3 cells; conditions: Homo sapiens, SK-BR-3, 72 h, SKBR3 (PI3Kα wild type) cells, CellTiter-Glo, approximately 72 hours; read-out: SKBR3 (WT) Viability IC50
How it was run: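 Viability measured via CTG luminescence following roughly 72 hours of compound exposure at 37° C. Dosing used a 10 um starting concentration diluted 1:4 over 10 points; percent-of-vehicle data fitted with a variable-slope four-parameter model for IC50.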

Compound | IC50 [1] [nM] | IC50 [2] [nM] | IC50 [3] [nM]
Cc1cc([C@@H](C)Nc2ccccc2C(=O)O)c2nc(N3CC(F)(F)C(F)(F)C3)c(C)c(=O)n2c1 [Example 10-51, (R)-2-((1-(3,7-dimethyl-4-oxo-2-(3,3,4,4-tetrafluoropyrrolidin-1-yl)-4H-pyrido[1,2-a]pyrimidin-9-yl)ethyl)amino)benzoic acid] | 1.93 | 68 | > 10000
Cc1cc([C@@H](C)Nc2ccccc2C(=O)O)c2nc(N3CCN(c4ccc(C#N)cc4F)CC3)c(C)c(=O)n2c1 [Example 10-55, (R)-2-((1-(2-(4-(4-cyano-2-fluorophenyl)piperazin-1-yl)-3,7-dimethyl-4-oxo-4H-pyrido[1,2-a]pyrimidin-9-yl)ethyl)amino)benzoic acid] | 3.35 | 72.4 | 4140
COC1(C)CCN(c2nc3c([C@@H](C)Nc4ccccc4C(=O)O)cc(C)cn3c(=O)c2C)CC1 [Example 10-56, (R)-2-((1-(2-(4-methoxy-4-methylpiperidin-1-yl)-3,7-dimethyl-4-oxo-4H-pyrido[1,2-a]pyrimidin-9-yl)ethyl)amino)benzoic acid] | 3.95 | 73.2 | > 10000
Cc1cc([C@@H](C)Nc2ccccc2C(=O)O)c2nc(N3CCN(c4ccccc4)CC3C)c(C#N)c(=O)n2c1 (stereo partly drawn) [Example 10-57, 2-(((1R)-1-(3-cyano-7-methyl-2-(2-methyl-4-phenylpiperazin-1-yl)-4-oxo-4H-pyrido[1,2-a]pyrimidin-9-yl)ethyl)amino)benzoic acid] | 5.17 | 73.3 | > 10000
Cc1cc([C@@H](C)Nc2ccccc2C(=O)O)c2nc(N3CCC(c4ccn(C)n4)CC3)c(C)c(=O)n2c1 [Example 10-58, (R)-2-((1-(3,7-dimethyl-2-(4-(1-methyl-1H-pyrazol-3-yl)piperidin-1-yl)-4-oxo-4H-pyrido[1,2-a]pyrimidin-9-yl)ethyl)amino)benzoic acid] | 4.02 | 73.3 | > 10000
Cc1cc([C@@H](C)Nc2ccccc2C(=O)O)c2nc(NCC3(C)CC3(F)F)c(C#N)c(=O)n2c1 (stereo partly drawn) [Example 10-60, 2-(((1R)-1-(3-cyano-2-(((2,2-difluoro-1-methylcyclopropyl)methyl)amino)-7-methyl-4-oxo-4H-pyrido[1,2-a]pyrimidin-9-yl)ethyl)amino)benzoic acid] | 2.62 | 98.8 | > 10000
Cc1cc([C@@H](C)Nc2ccccc2C(=O)O)c2nc(N3CCC(F)(F)C3)c(C#N)c(=O)n2c1 [Example 10-75, (R)-2-((1-(3-cyano-2-(3,3-difluoropyrrolidin-1-yl)-7-methyl-4-oxo-4H-pyrido[1,2-a]pyrimidin-9-yl)ethyl)amino)benzoic acid] | 1.05 | 110 | > 10000
Cc1cc([C@@H](C)Nc2ccccc2C(=O)O)c2nc(N3CC4CC3C4)c(C#N)c(=O)n2c1 [Example 10-76, (R)-2-((1-(2-(2-azabicyclo[2.1.1]hexan-2-yl)-3-cyano-7-methyl-4-oxo-4H-pyrido[1,2-a]pyrimidin-9-yl)ethyl)amino)benzoic acid] | 1.7 | 109 | > 10000
Cc1cc([C@@H](C)Nc2ccccc2C(=O)O)c2nc(N3CCN(c4ccc(C#N)cc4C)CC3)c(C)c(=O)n2c1 [Example 10-77, (R)-2-((1-(2-(4-(4-cyano-2-methylphenyl)piperazin-1-yl)-3,7-dimethyl-4-oxo-4H-pyrido[1,2-a]pyrimidin-9-yl)ethyl)amino)benzoic acid] | 3.8 | 107 | > 10000
COC1(C)CCN(c2nc3c([C@@H](C)Nc4ccccc4C(=O)O)cc(C)cn3c(=O)c2C#N)CC1 [Example 10-78, (R)-2-((1-(3-cyano-2-(4-methoxy-4-methylpiperidin-1-yl)-7-methyl-4-oxo-4H-pyrido[1,2-a]pyrimidin-9-yl)ethyl)amino)benzoic acid] | 2.21 | 74 | > 10000
Cc1cc([C@@H](C)Nc2ccccc2C(=O)O)c2nc(N3CCCCC3)c(F)c(=O)n2c1 [Example 10-79, (R)-2-((1-(3-fluoro-7-methyl-4-oxo-2-(piperidin-1-yl)-4H-pyrido[1,2-a]pyrimidin-9-yl)ethyl)amino)benzoic acid] | 0.299 | 77.5 | > 10000
Cc1cc([C@@H](C)Nc2ccccc2C(=O)O)c2nc(N(C)CC3CC3)c(C#N)c(=O)n2c1 [Example 10-80, (R)-2-((1-(3-cyano-2-((cyclopropylmethyl)(methyl)amin0)-7-methyl-4-oxo-4H-pyrido[1,2-a]pyrimidin-9-yl)ethyl)amino)benzoic acid] | 1.98 | 75 | > 10000
Cc1cc([C@@H](C)Nc2ccccc2C(=O)O)c2nc(N3CCC4(CC3)C(F)(F)C4(F)F)c(C#N)c(=O)n2c1 [Example 10-81, (R)-2-((1-(3-cyano-7-methyl-4-oxo-2-(1,1,2,2-tetrafluoro-6-azaspiro[2.5]octan-6-yl)-4H-pyrido[1,2-a]pyrimidin-9-yl)ethyl)amino)benzoic acid] | 2.53 | 78.5 | > 10000
Cc1cc([C@@H](C)Nc2ccccc2C(=O)O)c2nc(N3CCN(C(=O)c4ccc(Cl)cc4)CC3)c(C)c(=O)n2c1 [Example 10-82, (R)-2-((1-(2-(4-(4-chlorobenzoyl)piperazin-1-yl)-3,7-dimethyl-4-oxo-4H-pyrido[1,2-a]pyrimidin-9-yl)ethyl)amino)benzoic acid] | 2.6 | 78.5 | 7910
Cc1cc([C@@H](C)Nc2ccccc2C(=O)O)c2nc(N3CCN(C(=O)C4CCCC4)CC3)c(C)c(=O)n2c1 [Example 10-84, (R)-2-((1-(2-(4-(cyclopentanecarbonyl)piperazin-1-yl)-3,7-dimethyl-4-oxo-4H-pyrido[1,2-a]pyrimidin-9-yl)ethyl)amino)benzoic acid] | 2.98 | 79 | > 10000
Cc1cc([C@@H](C)Nc2ccc(Cl)nc2C(=O)O)c2nc(NCC3CC3)c(C)c(=O)n2c1 [Example 10-85, (R)-6-chloro-3-((1-(2-((cyclopropylmethyl)amino)-3,7-dimethyl-4-oxo-4H-pyrido[1,2-a]pyrimidin-9-yl)ethyl)amino)picolinic acid] | 2 | 79.5 | > 10000
Cc1cc([C@@H](C)Nc2ccccc2C(=O)O)c2nc(N3CCN(c4ccc(F)cc4F)CC3)c(C#N)c(=O)n2c1 [Example 10-86, (R)-2-((1-(3-cyano-2-(4-(2,4-difluorophenyl)piperazin-1-yl)-7-methyl-4-oxo-4H-pyrido[1,2-a]pyrimidin-9-yl)ethyl)amino)benzoic acid] | 15.5 | 80 | > 10000
Cc1cc([C@@H](C)Nc2ccccc2C(=O)O)c2nc(N3Cc4cc(F)c(F)cc4C3)c(C#N)c(=O)n2c1 [Example 10-87, (R)-2-((1-(3-cyano-2-(5,6-difluoroisoindolin-2-yl)-7-methyl-4-oxo-4H-pyrido[1,2-a]pyrimidin-9-yl)ethyl)amino)benzoic acid] | 2.23 | 80.2 | > 10000
Cc1cc([C@@H](C)Nc2ccccc2C(=O)O)c2nc(N3CC4CC3C(F)(F)C4)c(C#N)c(=O)n2c1 (stereo partly drawn) [Example 10-88, 2-(((1R)-1-(3-cyano-2-(6,6-difluoro-2-azabicyclo[2.2.1]heptan-2-yl)-7-methyl-4-oxo-4H-pyrido[1,2-a]pyrimidin-9-yl)ethyl)amino)benzoic acid] | 3.77 | 80.3 | > 10000
Cc1cc([C@@H](C)Nc2ccccc2C(=O)O)c2nc(N3C4CCCC3CC4)c(C#N)c(=O)n2c1 [Example 10-89, 2-(((1R)-1-(2-(8-azabicyclo[3.2.1]octan-8-yl)-3-cyano-7-methyl-4-oxo-4H-pyrido[1,2-a]pyrimidin-9-yl)ethyl)amino)benzoic acid] | 8.14 | 81.7 | > 10000
